Test results published in the supplement of paper PMC10331698.
± gives the standard deviation of the averaged measurements.

Experiments:
Test in all cases: level (log10 ratio to DMSO vehicle control); higher = higher biomarker level / cell amount than vehicle control
[1] = compound: O=S(=O)(O)C(F)(F)C(F)(F)C(F)(F)C(F)(F)C(F)(F)C(F)(F)C(F)(F)F [Perfluoroheptanesulfonic acid] (in DMSO)
Method: (§1)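 BioMAP Diversity Plus panel of 12 human primary cell co-culture systems (3C, 4H, LPS, SAg, BT, BF4T, BE3C, CASM3C, HDF3CGF, KF3CT, MyoF, Mphg). Compounds were added 1 h before stimulation and left for 24 h (MyoF 48 h; BT 72 h for soluble read-outs or 6 d for IgG). Biomarkers were read by ELISA, cytotoxicity by SRB, PBMC viability and proliferation by Alamar Blue. Each well value was divided by the mean of 8 DMSO control wells on the same plate and log10 transformed; duplicate blinded samples were tested at 4 concentrations.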

[2] = compound: C=C(C)C(=O)OCCC(F)(F)C(F)(F)C(F)(F)C(F)(F)C(F)(F)C(F)(F)C(F)(F)C(F)(F)F [8:2 Fluorotelomer methacrylate] (in DMSO)
Method: as §1

[3] = compound: OCC(F)(F)OC(F)(F)C(F)(F)OC(F)(F)C(F)(F)OC(F)(F)CO [1H,1H,11H,11H-Perfluorotetraethylene glycol] (in DMSO)
Method: as §1

[4] = compound: OCC(F)(F)C(F)(F)C(F)(F)C(F)F [1H,1H,5H-Perfluoropentanol] (in DMSO)
Method: as §1

[5] = compound: OCC(F)(F)C(F)(F)C(F)(F)C(F)(F)C(F)(F)C(F)(F)CO [1H,1H,8H,8H-Perfluorooctane-1,8-diol] (in DMSO)
Method: as §1

[6] = compound: O=C(O)C(F)(F)C(F)(F)C(F)(F)C(F)(F)C(=O)O [Octafluoroadipic acid] (in DMSO)
Method: as §1

[7] = compound: O=C(O)C(F)(F)C(F)(F)C(F)(F)C(F)(F)C(F)(F)C(F)(F)C(F)(F)C(F)(F)F [Perfluorononanoic acid] (in DMSO)
Method: as §1

Row | Test System | level (log10) ([1]; 1500 nM) | level (log10) ([1]; 4400 nM) | level (log10) ([1]; 13000 nM) | level (log10) ([1]; 40000 nM) | level (log10) ([2]; 6700 nM) | level (log10) ([2]; 20000 nM) | level (log10) ([3]; 6700 nM) | level (log10) ([3]; 20000 nM) | level (log10) ([3]; 60000 nM) | level (log10) ([4]; 6700 nM) | level (log10) ([4]; 20000 nM) | level (log10) ([4]; 60000 nM) | level (log10) ([5]; 6700 nM) | level (log10) ([5]; 20000 nM) | level (log10) ([5]; 60000 nM) | level (log10) ([6]; 6700 nM) | level (log10) ([6]; 20000 nM) | level (log10) ([6]; 60000 nM) | level (log10) ([7]; 6700 nM) | level (log10) ([7]; 20000 nM)
1 | lMphg:CCL2/MCP-1 | -0.009 ± 0.03 | -0.004 ± 0.047 | 0.003 ± 0.0042 | 0.035 ± 0.0028 | -0.032 | -0.012 ± 0.014 | -0.0285 ± 0.032 | -0.079 ± 0.034 | -0.073 ± 0.052 | -0.0185 ± 0.00071 | 0.008 ± 0.02 | 0.0075 ± 0.012 | -0.017 ± 0.0071 | -0.005 ± 0.0042 | 0.008 ± 0.031 | 0.0135 ± 0.013 | -0.008 ± 0.016 | 0.028 ± 0.059 | 0.0105 ± 0.0064 | 0.0325 ± 0.03
2 | lMphg:CCL3/MIP-1alpha | -0.04 ± 0.0071 | -0.0135 ± 0.047 | -0.0225 ± 0.064 | -0.014 ± 0.037 | 0.0075 ± 0.039 | 0.028 ± 0.065 | -0.051 ± 0.051 | -0.0435 ± 0.026 | 0.015 ± 0.055 | -0.012 ± 0.024 | -0.011 ± 0.027 | 0.0095 ± 0.0078 | -0.023 ± 0.0014 | -0.016 ± 0.0085 | 0.018 ± 0.025 | -0.035 ± 0.024 | -0.0045 ± 0.023 | 0.002 ± 0.018 | 0.004 ± 0.0028 | 0.0175 ± 0.0021
3 | lMphg:CD40 | -0.034 ± 0.021 | -0.007 ± 0.034 | -0.0285 ± 0.043 | -0.0525 ± 0.028 | -0.0215 ± 0.029 | -0.05 ± 0.052 | -0.0235 ± 0.019 | -0.0385 ± 0.013 | -0.0755 ± 0.03 | 0.0015 ± 0.023 | -0.012 ± 0.016 | 0.007 ± 0.02 | -0.0015 ± 0.018 | -0.028 ± 0.013 | -0.0405 ± 0.0078 | -0.0065 ± 0.0021 | -0.0015 ± 0.0021 | -0.025 ± 0.048 | 0.002 ± 0.013 | -0.03 ± 0.03
4 | lMphg:CD62E/E-Selectin | -0.029 ± 0.028 | -0.0015 ± 0.046 | -0.0135 ± 0.054 | 0.0415 ± 0.043 | 0.0085 ± 0.015 | 0.02 ± 0.014 | -0.056 ± 0.037 | -0.0635 ± 0.081 | -0.072 ± 0.086 | -0.006 ± 0.017 | 0.002 ± 0.014 | 0.02 ± 0.016 | -0.0195 ± 0.028 | -0.004 ± 0.013 | -0.0075 ± 0.0064 | -0.0025 ± 0.036 | -0.0275 ± 0.057 | -0.028 ± 0.064 | 0.0125 ± 0.035 | 0.0365 ± 0.00071
5 | lMphg:CD69 | -0.014 ± 0.055 | -0.008 ± 0.027 | -0.0145 ± 0.00071 | -0.0155 ± 0.018 | -0.041 ± 0.037 | -0.041 | -0.0285 ± 0.023 | -0.0155 ± 0.016 | 0.0065 ± 0.06 | -0.039 ± 0.031 | 0.0325 ± 0.019 | 0.034 ± 0.028 | -0.0165 ± 0.036 | -0.024 ± 0.025 | 0.001 ± 0.038 | 0.0095 ± 0.037 | 0.0035 ± 0.081 | -0.008 ± 0.054 | -0.0165 ± 0.069 | 0.0125 ± 0.032
6 | lMphg:CD106/VCAM-1 | -0.0135 ± 0.0035 | -0.0285 ± 0.021 | -0.0115 ± 0.016 | -0.019 ± 0.0014 | -0.0245 ± 0.0035 | -0.0315 ± 0.016 | -0.015 ± 0.024 | 0.009 ± 0.05 | 0 ± 0.04 | -0.0035 ± 0.021 | 0.0165 ± 0.037 | 0.0145 ± 0.018 | -0.024 ± 0.041 | -0.0125 ± 0.033 | -0.003 ± 0.048 | -0.007 ± 0.02 | 0.0065 ± 0.011 | 0.0055 ± 0.005 | 0.001 ± 0.04 | -0.005 ± 0.02
7 | lMphg:CXCL8/IL-8 | -0.001 ± 0.038 | -0.0165 ± 0.0078 | -0.018 ± 0.023 | 0.074 ± 0.069 | 0.0355 ± 0.023 | 0.085 ± 0.016 | -0.022 ± 0.017 | -0.034 ± 0.017 | -0.0265 ± 0.032 | 0.018 ± 0.017 | -0.0005 ± 0.019 | 0.035 ± 0.0028 | -0.0085 ± 0.074 | -0.03 ± 0.028 | 0.011 ± 0.034 | 0.009 ± 0.0099 | -0.0015 ± 0.028 | 0.0495 ± 0.091 | 0.093 ± 0.03 | 0.186 ± 0.06
8 | lMphg:IL-1alpha | 0.0075 ± 0.036 | -0.0045 ± 0.028 | 0 ± 0.042 | 0.073 ± 0.044 | -0.007 ± 0.028 | 0.0165 ± 0.073 | 0.012 ± 0.0057 | 0.0065 ± 0.04 | 0.0605 ± 0.053 | -0.055 ± 0.017 | -0.0185 ± 0.005 | 0.011 ± 0.044 | -0.011 ± 0.041 | -0.012 ± 0.0085 | 0.0855 ± 0.047 | -0.0495 ± 0.013 | -0.041 ± 0.027 | 0.039 ± 0.031 | -0.017 ± 0.017 | 0.0495 ± 0.0035
9 | lMphg:M-CSF | -0.0065 ± 0.023 | -0.01 ± 0.037 | -0.0285 ± 0.039 | -0.0285 ± 0.0035 | -0.013 ± 0.018 | -0.0365 ± 0.022 | -0.0215 ± 0.0021 | -0.0385 ± 0.0078 | -0.0575 ± 0.044 | 0.0115 ± 0.016 | -0.0125 ± 0.0064 | 0.0175 ± 0.021 | -0.015 ± 0.013 | -0.013 ± 0.016 | 0.013 ± 0.067 | -0.012 ± 0.0071 | -0.0255 ± 0.0035 | -0.006 ± 0.017 | -0.0215 ± 0.0064 | -0.006 ± 0.031
10 | lMphg:SRB | -0.01 ± 0.013 | -0.0055 ± 0.011 | 0.0015 ± 0.0035 | 0.003 ± 0.0057 | -0.0035 ± 0.0035 | -0.0055 ± 0.0064 | -0.009 ± 0.011 | -0.024 ± 0.0042 | -0.047 ± 0.0099 | -0.0065 ± 0.005 | -0.0045 ± 0.0064 | 0.006 ± 0.0014 | -0.0125 ± 0.0078 | -0.0115 ± 0.018 | -0.0245 ± 0.00071 | -0.023 ± 0.017 | -0.0045 ± 0.00071 | 0.001 ± 0.023 | 0.008 ± 0.0042 | 0.0105 ± 0.021
11 | lMphg:SRB-Mphg | -0.0005 ± 0.016 | -0.0025 ± 0.036 | 0.002 ± 0.0099 | -0.0005 ± 0.036 | 0.0085 ± 0.011 | -0.009 ± 0.031 | 0 ± 0.0042 | -0.011 ± 0.0028 | -0.077 ± 0.0028 | -0.012 ± 0.023 | -0.0605 ± 0.057 | 0.0145 ± 0.033 | -0.053 ± 0.079 | -0.031 ± 0.014 | -0.018 ± 0.027 | -0.026 ± 0.016 | 0.0135 ± 0.022 | 0.0265 ± 0.029 | -0.0205 ± 0.035 | -0.062 ± 0.081
12 | lMphg:sIL-10 | -0.042 ± 0.018 | -0.109 ± 0.048 | -0.101 ± 0.023 | -0.239 ± 0.072 | -0.107 ± 0.049 | -0.116 ± 0.0021 | -0.0385 ± 0.056 | -0.0965 ± 0.066 | -0.306 ± 0.025 | -0.0455 ± 0.069 | -0.012 ± 0.025 | -0.014 ± 0.027 | -0.175 ± 0.042 | -0.17 ± 0.037 | -0.216 ± 0.0057 | -0.067 ± 0.014 | -0.0425 ± 0.077 | -0.0425 ± 0.046 | -0.0035 ± 0.026 | -0.093 ± 0.044
